We go through 6 molecules from patent publication US20100130452A1, “Use of Doxycycline in the Treatment of Idiopathic Pulmonary Fibrosis” (NATIONAL RESEARCH DEVELOPMENT CORPORATION, priority 2007, published 2010).

The subject of one series is IPF patients. The note with it: cited from earlier work.
The subject of series [1] is Idiopathic Pulmonary Fibrosis patients. Put plainly: Response to treatment with only doxycycline (case reports). Format: in vivo, human. The text has this: Example 1 Response to Treatment with Only Doxycycline […]
A further series concerns suspected IPF patients. The note with it: human, in vivo.
Series [2] has as its system patients (periodontal disease, malaria prevention, Pulmonary Capillary Hemangiomatosis, Q fever endocarditis). The note with it: in vivo; cited from earlier work.
Where [3] appears, read: Case 2, 01 Oct. 2007 (earlier date, baseline).
Setting [4] is: Case 2, 09 Jan. 2008, on doxycycline 100 mg twice a day for over 3 months.
[5] abbreviates: Case 4, 10 Jan. 2004 (earlier date, baseline).
Setting [6] is: Case 4, 20 Aug. 2004, after doxycycline for over 7 months.

For `CC(C)(S)[C@@H](N)C(=O)O` [D-penicillamine], the “Benefit of antifibrotic therapy in IPF” value with IPF patients (in vivo) is on record as “did not show any significant benefit”.
As for `Cc1ccc(=O)n(-c2ccccc2)c1` [Pirfinidone], in the series with IPF patients (in vivo), the Tolerability result is given as “well tolerated”.
`COc1cc2c(c(OC)c1OC)-c1ccc(OC)c(=O)cc1[C@@H](NC(C)=O)CC2` [colchicines]: the “Benefit of antifibrotic therapy in IPF” value in the series with IPF patients (in vivo) is given as “did not show any significant benefit”.
For the molecule `C[C@H]1c2cccc(O)c2C(=O)C2=C(O)[C@]3(O)C(=O)C(C(N)=O)=C(O)[C@@H](N(C)C)[C@@H]3[C@@H](O)[C@@H]21` [doxycycline], in series [1] (setting [3]), the “6 minute Walking distance” value was found to be 980 ft and the FVC was found to be 1.66 L. Also, in series [1] (setting [4]), the “6 minute Walking distance” value is recorded as 1155 ft and the FVC amounted to 1.92 L. In series [1] (setting [5]), the FEV1 is 1.15, the FVC was 2.12, the “TLCO(%)” value came to 49.4% and the TLCO/VA was determined as 102.6. Moreover, the VA in series [1] (setting [5]) turned out to be 3.76. The molecule also registered an FVC in series [1] (Case 4, 20 Aug. 2004, after doxycycline 100 mg twice a day for over 7 months) of 2.45. In series [1] (setting [6]), the FEV1 was found to be 1.51, the “TLCO(%)” value was 58.9%, the TLCO/VA worked out at 127.9 and the VA was determined as 3.59. Further, in the series with suspected IPF patients, the “Intolerance or adverse reaction” value was “no intolerance or adverse reaction” and the Tolerability result is “well tolerated”. Besides, in series [2], the “Harm in long-term use (ACMP conclusion)” value is given as “no evidence of harm” and the “Tolerability in Pulmonary Capillary Hemangiomatosis with atypical endotheliomatosis” value is “without any problem”.
Consider “doxycycline hyclate [doxycycline hyclate (Periostat)]”, for which, in series [2], the “Safety in clinical studies” value is given as “safe”.

B1: Interferon gamma-1b: a down regulator to TGFβ (protein, UniProt P01579 24-161, looked up)
Interferon gamma: QDPYVKEAENLKKYFNAGHSDVADNGTLFLGILKNWKEESDRKIMQSQIVSFYFKLFKNFKDDQSIQKSVETIKEDMNVKFFNSNKKKRDDFEKLTNYSVTDLNVQRKAIHELIQVMAELSPAAKTGKRKRSQMLFRG
In the case of B1, in the series with IPF patients (one year study), the “Lung volume, gas exchange and symptoms” value is recorded as “increase”. In addition, the “Efficacy in IPF” value in the series on IPF patients (recent double blind controlled trial) was “ruled out its efficacy”.
